# Tested on: MLKL phosphorylation (pMLKL) in HT29-L23 cells
# Assay: MLKL Phosphorylation High-Content Assay
# Format: cell-based
# Conditions: Homo sapiens, 6 h, necroptosis induced with human TNFα, SMAC mimetic and Z-VAD, read-out: LE pMLKL HC IC50
# In short: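 HT29-L23 cells incubated 6 h at 37° C before detection of phospho-MLKL by immunostaining with anti-phospho-MLKL antibody (1:1000 in PBS/0.1% BSA, overnight at 4° C). Readout by high-content imaging with compartmental image analysis.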
row,SMILES,IC50 [nM]
1,"Nc1nc2cc(-c3cccc(OCCC(F)(F)COc4cc(Cl)ccn4)c3F)ccn2n1 [Example 1, 7-(3-(4-((4-chloropyridin-2-yl)oxy)-3,3-difluorobutoxy)-2-fluorophenyl)-[1,2,4]triazolo[1,5-a]pyridin-2-amine]",140
2,"Nc1nc2cc(-c3cccc(OCCC(F)(F)Oc4ccc(F)cc4)c3F)ccn2n1 [Example 65, 7-(3-(3,3-difluoro-3-(4-fluorophenoxy)propoxy)-2-fluorophenyl)-[1,2,4]triazolo[1,5-a]pyridin-2-amine]",140
3,"Nc1nc2cc(-c3cccc(OCCC(F)(F)Cc4ccccc4)c3F)ccn2n1 [Example 74, 7-(3-(3,3-difluoro-4-phenylbutoxy)-2-fluorophenyl)-[1,2,4]triazolo[1,5-a]pyridin-2-amine]",5

# Same assay, conditions: necroptosis induced with human TNFα, SMAC mimetic and Z-VAD, 6 h, read-out: LE pMLKL HC IC50
row,SMILES,IC50 [nM]
1,"Nc1nc2cc(-c3ccc(C(F)(F)F)c(OCCC(F)C(O)c4ccc(F)cc4)c3F)ccn2n1 (single isomer, unassigned) [Example 111, 4-(3-(2-amino-[1,2,4]triazolo[1,5-a]pyridin-7-yl)-2-fluoro-6-(trifluoromethyl)phenoxy)-2-fluoro-1-(4-fluorophenyl)butan-1-ol]",29
2,"Nc1nc2cc(-c3ccc(C(F)(F)F)c(OCCC(F)C(O)c4ccc(F)cc4)c3F)ccn2n1 (single isomer, unassigned) [Example 112, 4-(3-(2-amino-[1,2,4]triazolo[1,5-a]pyridin-7-yl)-2-fluoro-6-(trifluoromethyl)phenoxy)-2-fluoro-1-(4-fluorophenyl)butan-1-ol]",730
3,"Nc1nc2cc(-c3ccc(C(F)(F)F)c(OCCC(F)C(O)c4ccc(F)cc4)c3F)ccn2n1 (single isomer, unassigned) [Example 113, 4-(3-(2-amino-[1,2,4]triazolo[1,5-a]pyridin-7-yl)-2-fluoro-6-(trifluoromethyl)phenoxy)-2-fluoro-1-(4-fluorophenyl)butan-1-ol]",220
4,"Cc1ccc(-c2ccn3nc(N)nc3c2)c(F)c1OCCC(F)C(C)(O)c1ccc(F)cc1 (single isomer, unassigned) [Example 114, 5-(3-(2-amino-[1,2,4]triazolo[1,5-a]pyridin-7-yl)-2-fluoro-6-methylphenoxy)-3-fluoro-2-(4-fluorophenyl)pentan-2-ol]",0.1
5,"Cc1ccc(-c2ccn3nc(N)nc3c2)c(F)c1OCCC(F)C(C)(O)c1ccc(F)cc1 (single isomer, unassigned) [Example 115, 5-(3-(2-amino-[1,2,4]triazolo[1,5-a]pyridin-7-yl)-2-fluoro-6-methylphenoxy)-3-fluoro-2-(4-fluorophenyl)pentan-2-ol]",2.6
6,"Nc1nc2cc(-c3cc(F)c(F)c(OCCC(F)C(O)c4ccc(F)cc4)c3)ccn2n1 (single isomer, unassigned) [Example 116, 4-(5-(2-amino-[1,2,4]triazolo[1,5-a]pyridin-7-yl)-2,3-difluorophenoxy)-2-fluoro-1-(4-fluorophenyl)butan-1-ol]",55
7,"Nc1nc2cc(-c3cc(F)c(F)c(OCCC(F)C(O)c4ccc(F)cc4)c3)ccn2n1 (single isomer, unassigned) [Example 117, 4-(5-(2-amino-[1,2,4]triazolo[1,5-a]pyridin-7-yl)-2,3-difluorophenoxy)-2-fluoro-1-(4-fluorophenyl)butan-1-ol]",580
8,"Nc1nc2cc(-c3cc(F)c(F)c(OCCC(F)C(O)c4ccc(F)cc4)c3)ccn2n1 (single isomer, unassigned) [Example 118, 4-(5-(2-amino-[1,2,4]triazolo[1,5-a]pyridin-7-yl)-2,3-difluorophenoxy)-2-fluoro-1-(4-fluorophenyl)butan-1-ol]",1040
9,"Nc1nc2cc(-c3cc(F)c(F)c(OCCC(F)C(O)c4ccc(F)cc4)c3)ccn2n1 (single isomer, unassigned) [Example 119, 4-(5-(2-amino-[1,2,4]triazolo[1,5-a]pyridin-7-yl)-2,3-difluorophenoxy)-2-fluoro-1-(4-fluorophenyl)butan-1-ol]",580
10,"Cc1ccc(-c2ccn3nc(N)nc3c2)c(F)c1OCCC(F)C(F)(F)c1ccc(F)cc1 (single isomer, unassigned) [Example 120, 7-(2-fluoro-4-methyl-3-(3,4,4-trifluoro-4-(4-fluorophenyl)butoxy)phenyl)-[1,2,4]triazolo[1,5-a]pyridin-2-amine]",9.6
11,"Cc1ccc(-c2ccn3nc(N)nc3c2)c(F)c1OCCC(F)C(F)(F)c1ccc(F)cc1 (single isomer, unassigned) [Example 121, 7-(2-fluoro-4-methyl-3-(3,4,4-trifluoro-4-(4-fluorophenyl)butoxy)phenyl)-[1,2,4]triazolo[1,5-a]pyridin-2-amine]",89
12,"CC(O)(c1cccc(F)c1)C(F)(F)CCOc1c(F)ccc(-c2ccn3nc(N)nc3c2)c1F (single isomer, unassigned) [Example 122, 5-(3-(2-amino-[1,2,4]triazolo[1,5-a]pyridin-7-yl)-2,6-difluorophenoxy)-3,3-difluoro-2-(3-fluorophenyl)pentan-2-ol]",130
13,"CC(O)(c1cccc(F)c1)C(F)(F)CCOc1c(F)ccc(-c2ccn3nc(N)nc3c2)c1F (single isomer, unassigned) [Example 123, 5-(3-(2-amino-[1,2,4]triazolo[1,5-a]pyridin-7-yl)-2,6-difluorophenoxy)-3,3-difluoro-2-(3-fluorophenyl)pentan-2-ol]",0.9
14,"CC(O)(c1ccccc1F)C(F)(F)CCOc1c(F)ccc(-c2ccn3nc(N)nc3c2)c1F (single isomer, unassigned) [Example 124, 5-(3-(2-amino-[1,2,4]triazolo[1,5-a]pyridin-7-yl)-2,6-difluorophenoxy)-3,3-difluoro-2-(2-fluorophenyl)pentan-2-ol]",160
15,"CC(O)(c1ccccc1F)C(F)(F)CCOc1c(F)ccc(-c2ccn3nc(N)nc3c2)c1F (single isomer, unassigned) [Example 125, 5-(3-(2-amino-[1,2,4]triazolo[1,5-a]pyridin-7-yl)-2,6-difluorophenoxy)-3,3-difluoro-2-(2-fluorophenyl)pentan-2-ol]",0.6
16,"CC(CC(F)(F)C(C)(O)c1ccc(F)cc1)Oc1c(F)ccc(-c2ccn3nc(N)nc3c2)c1F (single isomer, unassigned) [Example 126, 5-(3-(2-amino-[1,2,4]triazolo[1,5-a]pyridin-7-yl)-2,6-difluorophenoxy)-3,3-difluoro-2-(4-fluorophenyl)hexan-2-ol]",370
17,"CC(CC(F)(F)C(C)(O)c1ccc(F)cc1)Oc1c(F)ccc(-c2ccn3nc(N)nc3c2)c1F (single isomer, unassigned) [Example 127, 5-(3-(2-amino-[1,2,4]triazolo[1,5-a]pyridin-7-yl)-2,6-difluorophenoxy)-3,3-difluoro-2-(4-fluorophenyl)hexan-2-ol]",1.1
18,"CC(CC(F)(F)C(C)(O)c1ccc(F)cc1)Oc1c(F)ccc(-c2ccn3nc(N)nc3c2)c1F (single isomer, unassigned) [Example 128, 5-(3-(2-amino-[1,2,4]triazolo[1,5-a]pyridin-7-yl)-2,6-difluorophenoxy)-3,3-difluoro-2-(4-fluorophenyl)hexan-2-ol]",170
19,"CC(CC(F)(F)C(C)(O)c1ccc(F)cc1)Oc1c(F)ccc(-c2ccn3nc(N)nc3c2)c1F (single isomer, unassigned) [Example 129, 5-(3-(2-amino-[1,2,4]triazolo[1,5-a]pyridin-7-yl)-2,6-difluorophenoxy)-3,3-difluoro-2-(4-fluorophenyl)hexan-2-ol]",70
20,"CC(C)(CC(F)(F)C(C)(O)c1ccc(F)cc1)Oc1c(F)ccc(-c2ccn3nc(N)nc3c2)c1F (single isomer, unassigned) [Example 130, 5-(3-(2-amino-[1,2,4]triazolo[1,5-a]pyridin-7-yl)-2,6-difluorophenoxy)-3,3-difluoro-2-(4-fluorophenyl)-5-methylhexan-2-ol]",4200
21,"CC(C)(CC(F)(F)C(C)(O)c1ccc(F)cc1)Oc1c(F)ccc(-c2ccn3nc(N)nc3c2)c1F (single isomer, unassigned) [Example 131, 5-(3-(2-amino-[1,2,4]triazolo[1,5-a]pyridin-7-yl)-2,6-difluorophenoxy)-3,3-difluoro-2-(4-fluorophenyl)-5-methylhexan-2-ol]",3.4
